Measurements as given in paper PMC13107025 (2025).

Legend:
[1] = test system: c-Myc G4 (DNA, G4) GCGCTTATGGGGAGGGTGGGGAGGGTGGGGAAGGTGGGGAGGAGAC; experiment: FRET melting (real-time PCR); conditions: 50 mM KCl; Tris-HCl pH 7.4; 1 μM oligonucleotide, EKB 8 eq (8 μM)
[2] = test system: Bcl-2 G4 (UV titration) (DNA, G4) CGGGCGGGAGCGCGGCGGGCGGGCGGG; experiment: UV-visible absorption titration; conditions: 100 mM KCl; 10 mM Tris-HCl pH 7.4, room temperature; EKB 20 μM, G4:EKB 1:1 to 8:1
[3] = test system: c-KIT G4 (DNA, G4) AGGGAGGGCGCTGGGAGGAGGGG; experiment: FRET melting (real-time PCR); conditions: 50 mM KCl; Tris-HCl pH 7.4; 1 μM oligonucleotide, EKB 8 eq (8 μM)
[4] = test system: G4 (DNA, G4) GGGGAGGGGCTGGGAGGGCCCGGAGGGGGCTGGGCCGGGGACCCGGGAGGGGTCGGGACGGGGCGGGG; experiment: FRET melting (real-time PCR); conditions: 50 mM KCl; Tris-HCl pH 7.4; 1 μM oligonucleotide, EKB 8 eq (8 μM)
[5] = test system: c-KIT G4 (UV titration) (DNA, G4) AGGGAGGGCGCTGGGAGGAGGGG; experiment: UV-visible absorption titration; conditions: 100 mM KCl; 10 mM Tris-HCl pH 7.4, room temperature; EKB 20 μM, G4:EKB 1:1 to 8:1
[6] = test system: dsDNA (DNA, duplex) CAATCGGATCGAATTCGATCCGATTG; experiment: FRET melting (real-time PCR); conditions: 50 mM KCl; Tris-HCl pH 7.4; 1 μM oligonucleotide, EKB 8 eq (8 μM)
[7] = test system: k-RAS G4 (UV titration) (DNA, G4) AGGGCGGTGTGGGAAGAGGGAAGAGGGGGAGG; experiment: UV-visible absorption titration; conditions: 100 mM KCl; 10 mM Tris-HCl pH 7.4, room temperature; EKB 20 μM, G4:EKB 1:1 to 8:1
[8] = test system: c-Myc G4 (UV titration) (DNA, G4) GCGCTTATGGGGAGGGTGGGGAGGGTGGGGAAGGTGGGGAGGAGAC; experiment: UV-visible absorption titration; conditions: 100 mM KCl; 10 mM Tris-HCl pH 7.4, room temperature; EKB 20 μM, G4:EKB 1:1 to 8:1
[9] = test system: k-RAS G4 (DNA, G4) AGGGCGGTGTGGGAAGAGGGAAGAGGGGGAGG; experiment: FRET melting (real-time PCR); conditions: 50 mM KCl; Tris-HCl pH 7.4; 1 μM oligonucleotide, EKB 8 eq (8 μM)
[10] = test system: Bcl-2 G4 (DNA, G4) CGGGCGGGAGCGCGGCGGGCGGGCGGG; experiment: FRET melting (real-time PCR); conditions: 50 mM KCl; Tris-HCl pH 7.4; 1 μM oligonucleotide, EKB 8 eq (8 μM)

- ΔTm [1]: 3.90 °C
- binding [2]: yes
- ΔTm [3]: 4.17 °C
- ΔTm [4]: 2.12 °C
- binding [5]: yes
- ΔTm [6]: –1.16 °C
- binding [7]: yes
- binding [8]: yes
- ΔTm [9]: 3.22 °C
- ΔTm [10]: 7.09 °C
Structure (SMILES): CC(C)=CCc1cc(-c2cc(=O)c3c(O)cc(O)c(CC=C(C)C)c3o2)cc(O)c1O
